Source: patent US20100075978A1, “SULFONAMIDE DERIVATIVES AS BRADYKININ ANTAGONISTS” (priority 2006, published 2010)
Where a name gives a salt, the structure may show the parent alone. Read-outs that look alike come from different tables or passages of the source.

Assays:
[1] = target: T1, human recombinant bradykinin B1 receptor (Homo sapiens, UniProt P46663); assay: Human recombinant bradykinin B1 receptor binding
T1 construct: purchased Euroscreen ES-091; host or cells: CHO cells
T1 sequence (P46663 1-353): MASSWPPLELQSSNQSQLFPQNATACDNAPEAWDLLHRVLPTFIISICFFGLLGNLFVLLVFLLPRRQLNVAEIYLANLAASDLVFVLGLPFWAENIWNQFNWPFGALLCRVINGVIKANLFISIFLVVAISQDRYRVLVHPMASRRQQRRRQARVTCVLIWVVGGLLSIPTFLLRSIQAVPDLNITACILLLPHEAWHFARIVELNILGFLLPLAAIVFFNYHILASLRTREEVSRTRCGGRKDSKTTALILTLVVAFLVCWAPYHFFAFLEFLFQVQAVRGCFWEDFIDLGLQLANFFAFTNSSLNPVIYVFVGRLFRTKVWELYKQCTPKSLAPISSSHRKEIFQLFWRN
Procedure: 1. Human Recombinant Bradykinin B1 Receptor Binding
Binding assays were carried out on human recombinant bradykinin) receptors (expressed in CHO cells) according to the Euroscreen Technical Data Sheet (Cat.No.:ES-091). 20 μg protein/tube was incubated with [3,4-prolyl-3,4-^3H(N)]-[Des-Arg^10] Kallidin as radioligand. Non specific binding was determined in the presence of 10 μM Lys-des-Arg^9-Bradykinin. The final incubation volume was 250 μl. Samples were incubated for 15 min. at 25° C. then were rapidly vacuum filtered through GF/B filters presoaked for at least 1 h in 0.5% PEI. Radioactivity was determined by liquid scintillation spectroscopy.

[2] = target: T2, recombinant human B1 receptors (Homo sapiens, UniProt P46663); assay: Functional assay: cytosolic calcium ion concentration measured with plate reader fluorimeter in CHO-B1 cells, agonist LysDABK; type: cell-based
T2 construct: host or cells: CHO (CHO-B1)
T2 sequence (P46663 1-353): T1 sequence (P46663 1-353)
Procedure: Assessment of Antagonist Potency at B1 and B2 Receptors In Vitro by Measurement of Cytosolic Calcium Ion Concentration with a Plate Reader Fluorimeter in Cells Expressing Recombinant Human B1 or B2 Receptors
Chinese hamster ovary (CHO) cells stably expressing recombinant human B1 (CHO-B1, Euroscreen) or B2 (CHO-B2, Perkin-Elmer) receptors were cultured in Dulbecco's Modified Eagle's Medium (DMEM) containing 10% Fetal Calf Serum (FCS), 100 U/ml penicillin, 0.1 mg/ml streptomycin, 0.25 μg/ml amphotericin B, 1% Minimum Essential Medium Eagle (MEM), non essential amino acid solution, 600 μg/ml G418, 1% pyruvate (for the B2 cell line). Cells were kept at 37° C. in a humidified incubator in an atmosphere of 5% CO2/95% air and were passaged 1:4 three times a week. Cells were plated at 1.5-2.5×10^4 cell/well on standard 96-well microplates, measurements of cytosolic calcium ion concentration ([Ca^2+]i) were carried out 1-2 days after cell plating.
Measurements of [Ca^2+]i were carried out on CHO-B1 and CHO-B2 cells stably expressing human B1 and B2 receptors, respectively. Cells were grown in standard 96-well microplates and before the measurement were loaded with a fluorescent Ca^2+-sensitive dye, fluo-4/AM (2 μM): after removing the culture medium the dye was added to the cells (dissolved in assay buffer: 145 mM NaCl, 5 mM KCl, 2 mM MgCl2, 2 mM CaCl2, 10 mM HEPES, 20 mM D-glucose, 2 mM probenecid, 100 μl/well) and cells were incubated at 37° C. in a humidified incubator in an atmosphere of 5% CO2/95% air for 40-120 min. To stop dye loading cells were washed twice with assay buffer. After washing, various concentrations of the test compounds (diluted in extracellular medium from a DMSO stock solution, final DMSO concentration was <0.1%) or buffer were added to each well depending on the experimental setup. After incubation at 37° C. for 20-25 min. baseline and agonist-evoked changes of [Ca^2+]i were measured column by column with a plate reader fluorimeter (Fluoroskan Ascent, Labsystems). Excitation and detection of emission was carried out from the bottom of the plate. Filters used for Fluo-4: excitation filter—485 nm, emission filter—538 nm. The whole measurement process was performed at 37° C. and was controlled by custom software. Inhibitory potency of the test compounds was assessed by measuring the reduction in the agonist-evoked [Ca^2]i-elevation in the presence of different concentrations of the compounds. The agonists were LysDABK for CHO-B1, and bradykinin for CHO-B2 cells. Agonists were applied at an EC80 concentration, the EC80-values were derived from daily determined dose-response curves. Fluorescence data were expressed as ΔF/F (fluorescence change normalized to baseline). All treatments on a single plate were measured in multiple wells. Data from all wells with the same treatment were averaged and the average values were used for analysis. Inhibitory potency of a compound at a single concentration point was expressed as percent inhibition of the control agonist response. Sigmoidal concentration-inhibition curves were fitted to the data (derived from at least three independent experiments) and IC50-values were determined as the concentration that produces half of the maximal inhibition caused by the compound.

[3] = radioligand [3H]-[Des-Arg10] Kallidin, CHO cell membranes, read-out: B1 binding
[4] = CHO-B1 cells, LysDABK at EC80, [Ca2+]i, read-out: B1 func.
[5] = reference compounds, binding test, read-out: Ki
[6] = reference compounds, functional test, read-out: IC50

Row | Compound | Ki [1, 3] | IC50 [2, 4] | Ki [1, 5] | IC50 [2, 6]
1 | O=C(NCCCCC1CCNCC1)c1ccc(S(=O)(=O)Nc2ccccc2Oc2ccc(Cl)cc2Cl)cc1 [Example 170, 4-[2-(2,4-Dichloro-phenoxy)-phenylsulfamoyl]-N-(4-piperidin-4-yl-butyl)-benzamide hydrochloride] | < 20 nM | < 20 nM |  | 
2 | O=C(NCCc1ccc(C2=NCCN2)cc1)c1ccc(S(=O)(=O)Nc2ccccc2Oc2ccc(Br)cc2)cc1 [Example 7, 4-[2-(4-Bromo-phenoxy)-phenylsulfamoyl]-N-{2-[4-(4,5-dihydro-4H-imidazol-2-yl)-phenyl]-ethyl}-benzamide] | < 20 nM | < 20 nM |  | 
3 | O=C(NCCCN1CCC(N2CCCCC2)CC1)c1ccc(S(=O)(=O)Nc2ccccc2Oc2ccc(Br)cc2)cc1 [Example 111, N-(3-[1,4′]Bipiperidinyl-1′-yl-propyl)-4-[2-(4-bromo-phenoxy)-phenylsulfamoyl]-benzamide] | < 20 nM | < 20 nM |  | 
4 | 4-[1-(3,4-Dichloro-phenoxy)-phenylsulfamoyl]-N-[3-(4-pyridin-4-yl-piperazin-1-yl)-propyl]-benzamide [Example 66] | < 20 nM | < 20 nM |  | 
5 | CCCN1C(=O)[C@H](NC(=O)Nc2ccc(N3CCC(N4CCCCC4)CC3)cc2)N=C(c2ccc(C)cc2)c2ccccc21 [compound 3, N-[4-(,4′-bipiperidin)-1′-ylphenyl]-N′-[(3R)-2,3-dihydro-5-(4-methyl-phenyl)-2-oxo-1-propyl-1H-1,4-benzodiazepin-3-yl]-urea, reference compound] |  |  | 13.4 nM | 64.5 nM
6 | O=C(NCCN1CCN(Cc2ccccn2)CC1)c1ccc(S(=O)(=O)Nc2ccccc2Oc2ccc(Br)cc2)cc1 [Example 99, 4-[2-(4-Bromo-phenoxy)-phenylsulfamoyl]-N-[2-(4-pyridin-2-ylmethyl-piperazin-1-yl)-ethyl]-benzamide] | 20 to 100 nM | 20 to 100 nM |  | 
7 | O=C(NCCc1ccc(C2=NCCN2)cc1)c1ccc(S(=O)(=O)Nc2ccccc2Oc2ccc(Cl)cc2Cl)cc1 [Example 2, 4-[2-(2,4-Dichloro-phenoxy)-phenylsulfamoyl]-N-{2-[4-(4,5-dihydro-1H-imidazol-2-yl)-phenyl]-ethyl}-benzamide trifluoroacetate] | < 20 nM | < 20 nM |  | 
8 | CCCN1C(=O)[C@H](NC(=O)Nc2ccc(N3CCN(c4ccncc4)CC3)cc2)N=C(CCc2ccccc2)c2ccccc21 [compound 2, (R)—N-[2,3-dihydro-2-oxo-5-(2-phenyl-ethyl)-1-propyl-1H-1,4-benzodiazepin-3-yl]-N′-{4-[4-(4-pyridinyl)-1-piperazinyl]-phenyl}-urea, reference compound] |  |  | 0.59 nM | 1.9 nM
9 | O=C(NCCCN1CCCCC1)c1ccc(S(=O)(=O)Nc2ccccc2Oc2ccc(Cl)cc2Cl)cc1 [Example 76, 4-[2-(2,4-Dichloro-phenoxy)-phenylsulfamoyl]-N-(3-piperidin-1-yl-propyl)-benzamide] | 20 to 100 nM | 20 to 100 nM |  | 
10 | CN1CCC(N2CCC(CCNC(=O)c3ccc(S(=O)(=O)Nc4ccccc4Oc4ccc(Cl)cc4Cl)cc3)CC2)CC1 [Example 24, 4-[2-(2,4-Dichloro-phenoxy)-phenylsulfamoyl]-N-[2-(1-methyl-[1,4′]bipiperidinyl-4-yl)-ethyl]-benzamide] | < 20 nM | < 20 nM |  | 
11 | O=C(NCCCN1CCC(N2CCCCC2)CC1)c1ccc(S(=O)(=O)Nc2ccccc2Oc2ccc(Cl)c(Cl)c2)cc1 [Example 5, N-(3-[1,4′]Bipiperidinyl-1′-yl-propyl)-4-[2-(3,4-dichloro-phenoxy)-phenylsulfamoyl]-benzamide] | < 20 nM | < 20 nM |  | 
12 | O=C(NCCCC1CCNCC1)c1ccc(S(=O)(=O)Nc2ccccc2Oc2ccc(Br)cc2Cl)cc1 [Example 30, 4-[2-(4-Bromo-2-chloro-phenoxy)-phenylsulfamoyl]-N-(3-piperidin-4-yl-propyl)-benzamide hydrochloride] | 20 to 100 nM | 20 to 100 nM |  | 
13 | COc1cc(Cl)ccc1Oc1ccccc1NS(=O)(=O)c1ccc(C(=O)NCCCN2CCC(N3CCCCC3)CC2)cc1 [Example 132, N-(3-[1,4′]Bipiperidinyl-1′-yl-propyl)-4-[2-(4-chloro-2-methoxy-phenoxy)-phenylsulfamoyl]-benzamide] | < 20 nM | 20 to 100 nM |  | 
14 | O=C(NCCCCC1CCNCC1)c1ccc(S(=O)(=O)Nc2ccccc2Oc2ccc(F)cc2Cl)cc1 [Example 135, 4-[2-(2-Chloro-4-fluoro-phenoxy)-phenylsulfamoyl]-N-(4-piperidin-4-yl-butyl)-benzamide hydrochloride] | 20 to 100 nM | 20 to 100 nM |  | 
15 | Cc1cccc(N2CCN(CCNC(=O)c3ccc(S(=O)(=O)Nc4ccccc4Oc4ccc(Cl)cc4Cl)cc3)CC2)n1 [Example 36, 4-[2-(2,4-Dichloro-phenoxy)-phenylsulfamoyl]-N-{2-[4-(6-methyl-pyridin-2-yl)-piperazin-1-yl]-ethyl}-benzamide] | < 20 nM | 20 to 100 nM |  | 
16 | O=C(NCCc1ccc(C2=NCCN2)cc1)c1ccc(S(=O)(=O)Nc2ccccc2Oc2ccc(Cl)c(Cl)c2)cc1 [Example 4, 4-[2-(3,4-Dichloro-phenoxy)-phenylsulfamoyl]-N-{2-[4-(4,5-dihydro-1H-imidazol-2-yl)-phenyl]-ethyl}-benzamide] | < 20 nM | < 20 nM |  | 
17 | O=C(Nc1ccc(N2CCC(N3CCCCC3)CC2)cc1)c1ccc(S(=O)(=O)Nc2ccccc2Oc2ccc(Br)cc2Cl)cc1 [Example 169, N-(4-[1,4′]Bipiperidinyl-1′-yl-phenyl)-4-[2-(4-bromo-2-chloro-phenoxy)-phenylsulfamoyl]-benzamide] | < 20 nM | < 20 nM |  | 
18 | COc1ccc(Oc2ccccc2NS(=O)(=O)c2ccc(C(=O)NCCCN3CCC(N4CCCCC4)CC3)cc2)c(Cl)c1 [Example 147, N-(3-[1,4′]Bipiperidinyl-1′-yl-propyl)-4-[2-(2-chloro-4-methoxy-phenoxy)-phenylsulfamoyl]-benzamide] | 20 to 100 nM | 20 to 100 nM |  | 
19 | O=C(NCCCN1CCC(N2CCCCC2)CC1)c1ccc(S(=O)(=O)Nc2cc(F)ccc2Oc2ccc(Br)cc2)cc1 [Example 102, N-(3-[1,4′]Bipiperidinyl-1′-yl-propyl)-4-[2-(4-bromo-phenoxy)-5-fluoro-phenylsulfamoyl]-benzamide] | < 20 nM | < 20 nM |  | 
20 | O=C(NCCN1CCN(c2ccncc2)CC1)c1ccc(S(=O)(=O)Nc2ccccc2Oc2ccc(Cl)cc2Cl)cc1 [Example 1, 4-[2-(2,4-Dichloro-phenoxy)-phenylsulfamoyl]-N-{2-[4-pyridin-4-yl-piperazin-1-yl)-ethyl]-benzamide dihydrochloride] | < 20 nM | < 20 nM |  | 
